According to publication PMC7667029, “A Targeted Computational Screen of the SWEETLEAD Database Reveals FDA-Approved Compounds with Anti-Dengue Viral Activity” (mBio, 2020):
“Also recorded” adds a separate entry of the source.

Experiments:
[1] = system: DENV2; assay: Antiviral activity in DENV2-infected Huh7 cells, infectious virus in supernatant by plaque assay; assay type: cell-based, dengue virus; conditions: Dengue virus, Huh-7, DENV2-infected Huh7 cells
[2] = system: dengue virus; assay: Extracellular and intracellular virus quantification in Huh7 cells; assay type: cell-based; conditions: IC90 dose (spautin-1 2.4 μM, vandetanib 3.6 μM), Huh7, 24 hpi
Experimental: FIG 5 Vandetanib and spautin-1 inhibit dengue maturation and egress in a VPS34-independent manner. […] Cells were pretreated for 1 h, infected for 1 h at an MOI of 0.5 PFU/cell, and posttreated for an additional 23 h. N = 4, one-way ANOVA with Dunnett’s multiple-comparison test. ns, not significant (P > 0.05); **, P < 0.01; ****, P < 0.0001. (C) Huh7 cells transfected with a luciferase-expressing RNA replicon were treated with 3 μM vandetanib (orange) or 1% DMSO vehicle control (black) for 1 h prior to transfection and up to 52 h posttransfection. Luciferase intensity was quantified as a measure of viral protein abundance. Luciferase intensity was shown as relative light units (RLU). The use of an RNA replicon that is directly transfected into cells reflects only translation and RNA replication steps of viral infection, not viral packaging or cell exit. N = 4, two-way ANOVA with Sikak’s multiple-comparison test. […] (D) VPS34 was not required for spautin-1 or vandetanib anti-dengue activity. Wild-type and VPS34 knockout Huh7 cells were treated with 5 μM spautin-1, 5 μM vandetanib, or DMSO. Cells were pretreated, infected at an MOI of 0.5, and posttreated as described above for panels A and B. At 24 hpi, cellular supernatant was collected and titered by plaque assay. N ≥ 3. One-way ANOVA with Dunnett’s multiple-comparison test; *, P < 0.05; **, P < 0.01; ***, P < 0.001; ****, P < 0.0001.
After 1 h, virus inoculum was aspirated and replaced with medium containing compounds or 1% DMSO. After 24-h total infection, extracellular virus was collected in cellular supernatant and quantified by plaque assay. To collect intracellular virus, cells were washed with PBS, incubated for 3 min at 4°C with high-salt buffer (1 M NaCl, 50 mM sodium bicarbonate [pH 9.5]) to detach cell-associated extracellular virus ([63]), washed twice with PBS, detached with 0.25% trypsin-EDTA, and isolated by centrifugation (500 × g, 5 min, 4°C). Infected cell pellets were resuspended in 750 μl cell culture medium, lysed by repeated freeze/thaw in liquid nitrogen followed by 37°C water bath. Debris was removed by centrifugation (3,200 × g, 5 min, 4°C), and infectious intracellular virus was quantified by BHK-21 plaque assay.

SMILES: COc1cc2c(Nc3ccc(Br)cc3F)ncnc2cc1OCC1CCN(C)CC1 [Vandetanib, vandetanib]
- IC90 ([1]; from dose-response curve fit, 24 hpi): 3.6 µM
- IC50 ([1]; single infectious cycle, plaque assay at 24 hpi, read-out: IC50 of viral inhibition (infectious extracellular virus)): 1.6 µM
- Extracellular viral titer [2]: significantly reduced; also recorded: reduced extracellular virus
- Infectious intracellular virus [2]: unchanged; also recorded: abundant intracellular virus
